Source: publication PMC7619385 (ACS infectious diseases, 2025)

What follows are compounds tested against T1, LmxCLK1 (Leishmania mexicana, UniProt E9AMP2) (assay: biochemical). Conditions: DSF, 10 µM compound, 2 µM LmxCLK1, Run 1.
T1 sequence (E9AMP2 1-422): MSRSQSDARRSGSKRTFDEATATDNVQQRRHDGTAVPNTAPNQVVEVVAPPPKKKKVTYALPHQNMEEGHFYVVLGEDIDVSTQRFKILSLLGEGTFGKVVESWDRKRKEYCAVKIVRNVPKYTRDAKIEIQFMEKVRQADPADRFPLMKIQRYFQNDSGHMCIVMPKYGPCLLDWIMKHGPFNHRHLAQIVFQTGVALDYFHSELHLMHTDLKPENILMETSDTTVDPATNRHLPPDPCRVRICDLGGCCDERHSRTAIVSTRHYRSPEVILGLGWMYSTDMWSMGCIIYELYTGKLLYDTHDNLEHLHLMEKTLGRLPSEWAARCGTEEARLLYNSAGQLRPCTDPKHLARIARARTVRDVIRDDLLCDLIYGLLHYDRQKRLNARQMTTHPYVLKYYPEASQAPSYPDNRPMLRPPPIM
Format: binding

Going from `Cc1cnc(Nc2ccc(OCCN3CCCC3)cc2)nc1Nc1cccc(S(=O)(=O)NC(C)(C)C)c1` [TG101348 (SAR302503)] to `Cc1cc(F)c(Nc2ncnc3cc(OCc4ccccc4)ccc23)cc1O.Cl` [ZM 323881 HCl], the “ΔTm Run 1” value falls from 0.2 °C to 0.1 °C.

First: O=c1cc(N2CCOCC2)oc2c(-c3cccc4c3sc3ccccc34)cccc12 [NU7441 (KU-57788)]
Second: O=c1cc(CN2CCOCC2)occ1OCCCCCSc1ccnc2cc(C(F)(F)F)ccc12 [EHT 1864]
The “ΔTm Run 1” value of the first is lower: 0.0 °C for the first, 0.1 °C for the second.

`O=C1NCCc2[nH]c(-c3ccncc3)cc21` [PHA-767491] was tested, and the “ΔTm Run 1” value was 0.7 °C.

Same assay, conditions: DSF, 10 µM compound, 2 µM LmxCLK1, Run 1; read-out: ΔTm Run 1

Going from `CC(C)CC(=O)Nc1[nH]nc2c1CN(C(=O)C1CCN(C)CC1)C2(C)C` [PHA-793887] to `C=CC(=O)Nc1cccc(Oc2nc(Nc3ccc(N4CCN(C)CC4)cc3OC)ncc2Cl)c1` [WZ4002], the ΔTm at 10 µM falls from 0.1 °C to -0.1 °C.

First: Oc1cccc(-c2nc(N3CCOCC3)c3oc4ncccc4c3n2)c1 [PI-103]
Second: CNC(=O)c1ccccc1Sc1ccc2c(/C=C/c3ccccn3)n[nH]c2c1 [Axitinib]
The ΔTm at 10 µM of the first is lower: 0 °C for the first, 0.6 °C for the second.

Going from `Cc1ncc(-c2ccnc(Nc3ccc(S(C)(=O)=O)cc3)n2)n1C(C)C` [AZD5438] to `CNCc1ccc(-c2cc(-c3nc(-c4ccc(S(=O)(=O)C(C)C)cc4)cnc3N)on2)cc1` [VE-822], the ΔTm at 10 µM falls from 1.2 °C to 0.6 °C.

Compared with `Cn1c(=O)c(F)c(Nc2ccc(I)cc2F)c2c(=O)n(C[C@@H](O)CO)cnc21` [TAK-733], `CCCS(=O)(=O)Nc1ccc(F)c(C(=O)c2c[nH]c3ncc(Cl)cc23)c1F` [PLX-4720] is lower in ΔTm at 10 µM: 0.2 °C for the first, -0.3 °C for the second.

Compared with `C=CC(=O)Nc1cccc(Nc2nc(Nc3ccc(OCCOC)cc3)ncc2F)c1` [AVL-292], `CN(C)CCOc1ccc(-c2nc(-c3ccncc3)c(-c3ccc4c(c3)CC/C4=N\O)[nH]2)cc1` [SB590885] is lower in ΔTm at 10 µM: 0 °C for the first, -0.1 °C for the second.

First: CCN1CCN(Cc2ccc(Nc3ncc(F)c(-c4cc(F)c5nc(C)n(C(C)C)c5c4)n3)nc2)CC1 [LY2835219]
Second: NC(=O)c1ccc(N(C(N)=O)c2c(F)cccc2F)nc1-c1ccc(F)cc1F [VX-702]
The ΔTm at 10 µM of the first is higher: 2.2 °C for the first, 0.3 °C for the second.

First: CCCNC(=O)Nc1ccc(Oc2ncnc3cc(OC)c(OC)cc23)cc1Cl [KRN 633]
Second: Oc1cc(O)cc(/C=C/c2ccc(O)c(O)c2)c1 [Piceatannol]
The ΔTm at 10 µM of the first is higher: 0.1 °C for the first, 0 °C for the second.

Compound `COc1ccc(S(=O)(=O)N(C(C)=O)c2ccccc2/C=C/c2cc[n+]([O-])cc2)cc1` [HMN-214] has a ΔTm at 10 µM of 0.4 °C.

Same assay, conditions: DSF, 10 µM compound, 2 µM LmxCLK1, Run 2

First: Cc1cnc(Nc2ccc(OCCN3CCCC3)cc2)nc1Nc1cccc(S(=O)(=O)NC(C)(C)C)c1 [TG101348 (SAR302503)]
Second: Cc1cc(F)c(Nc2ncnc3cc(OCc4ccccc4)ccc23)cc1O.Cl [ZM 323881 HCl]
The “ΔTm Run 2” value of the first is higher: 0.3 °C for the first, 0.0 °C for the second.

Going from `O=c1cc(N2CCOCC2)oc2c(-c3cccc4c3sc3ccccc34)cccc12` [NU7441 (KU-57788)] to `O=c1cc(CN2CCOCC2)occ1OCCCCCSc1ccnc2cc(C(F)(F)F)ccc12` [EHT 1864], the “ΔTm Run 2” value falls from -0.2 °C to -0.3 °C.

`O=C1NCCc2[nH]c(-c3ccncc3)cc21` [PHA-767491] was tested, and the “ΔTm Run 2” value was 1.3 °C.

Same assay, conditions: DSF, 10 µM compound, 2 µM LmxCLK1, Run 2; read-out: ΔTm Run 2

Compared with `CC(C)CC(=O)Nc1[nH]nc2c1CN(C(=O)C1CCN(C)CC1)C2(C)C` [PHA-793887], `C=CC(=O)Nc1cccc(Oc2nc(Nc3ccc(N4CCN(C)CC4)cc3OC)ncc2Cl)c1` [WZ4002] is lower in ΔTm at 10 µM: 0 °C for the first, -0.3 °C for the second.

First: Oc1cccc(-c2nc(N3CCOCC3)c3oc4ncccc4c3n2)c1 [PI-103]
Second: CNC(=O)c1ccccc1Sc1ccc2c(/C=C/c3ccccn3)n[nH]c2c1 [Axitinib]
The ΔTm at 10 µM of the first is lower: 0 °C for the first, 0.4 °C for the second.

Compared with `Cc1ncc(-c2ccnc(Nc3ccc(S(C)(=O)=O)cc3)n2)n1C(C)C` [AZD5438], `CNCc1ccc(-c2cc(-c3nc(-c4ccc(S(=O)(=O)C(C)C)cc4)cnc3N)on2)cc1` [VE-822] is lower in ΔTm at 10 µM: 0.8 °C for the first, 0.1 °C for the second.

Compared with `Cn1c(=O)c(F)c(Nc2ccc(I)cc2F)c2c(=O)n(C[C@@H](O)CO)cnc21` [TAK-733], `CCCS(=O)(=O)Nc1ccc(F)c(C(=O)c2c[nH]c3ncc(Cl)cc23)c1F` [PLX-4720] is higher in ΔTm at 10 µM: -0.3 °C for the first, -0.1 °C for the second.

Going from `C=CC(=O)Nc1cccc(Nc2nc(Nc3ccc(OCCOC)cc3)ncc2F)c1` [AVL-292] to `CN(C)CCOc1ccc(-c2nc(-c3ccncc3)c(-c3ccc4c(c3)CC/C4=N\O)[nH]2)cc1` [SB590885], the ΔTm at 10 µM falls from -0.2 °C to -0.4 °C.

First: CCN1CCN(Cc2ccc(Nc3ncc(F)c(-c4cc(F)c5nc(C)n(C(C)C)c5c4)n3)nc2)CC1 [LY2835219]
Second: NC(=O)c1ccc(N(C(N)=O)c2c(F)cccc2F)nc1-c1ccc(F)cc1F [VX-702]
The ΔTm at 10 µM of the first is higher: 2.1 °C for the first, -0.2 °C for the second.

Compared with `CCCNC(=O)Nc1ccc(Oc2ncnc3cc(OC)c(OC)cc23)cc1Cl` [KRN 633], `Oc1cc(O)cc(/C=C/c2ccc(O)c(O)c2)c1` [Piceatannol] is higher in ΔTm at 10 µM: -0.1 °C for the first, 0.1 °C for the second.

Compound `COc1ccc(S(=O)(=O)N(C(C)=O)c2ccccc2/C=C/c2cc[n+]([O-])cc2)cc1` [HMN-214] has a ΔTm at 10 µM of 0.1 °C.

Same assay, conditions: DSF, 10 µM compound, 2 µM LmxCLK1, mean of two runs

Going from `Cc1cnc(Nc2ccc(OCCN3CCCC3)cc2)nc1Nc1cccc(S(=O)(=O)NC(C)(C)C)c1` [TG101348 (SAR302503)] to `Cc1cc(F)c(Nc2ncnc3cc(OCc4ccccc4)ccc23)cc1O.Cl` [ZM 323881 HCl], the “ΔTm Average” value falls from 0.3 °C to 0.0 °C.

`O=c1cc(N2CCOCC2)oc2c(-c3cccc4c3sc3ccccc34)cccc12` [NU7441 (KU-57788)] and `O=c1cc(CN2CCOCC2)occ1OCCCCCSc1ccnc2cc(C(F)(F)F)ccc12` [EHT 1864] are the same in “ΔTm Average” value: -0.1 °C for the first, -0.1 °C for the second.

In the case of `O=C1NCCc2[nH]c(-c3ccncc3)cc21` [PHA-767491], the “ΔTm Average” value is reported as 1.0 °C.

Same assay, conditions: DSF, 10 µM compound, 2 µM LmxCLK1, mean of two runs; read-out: ΔTm Average

Compared with `CC(C)CC(=O)Nc1[nH]nc2c1CN(C(=O)C1CCN(C)CC1)C2(C)C` [PHA-793887], `C=CC(=O)Nc1cccc(Oc2nc(Nc3ccc(N4CCN(C)CC4)cc3OC)ncc2Cl)c1` [WZ4002] is lower in ΔTm at 10 µM: 0.1 °C for the first, -0.2 °C for the second.

First: Oc1cccc(-c2nc(N3CCOCC3)c3oc4ncccc4c3n2)c1 [PI-103]
Second: CNC(=O)c1ccccc1Sc1ccc2c(/C=C/c3ccccn3)n[nH]c2c1 [Axitinib]
The ΔTm at 10 µM of the first is lower: 0 °C for the first, 0.5 °C for the second.

First: Cc1ncc(-c2ccnc(Nc3ccc(S(C)(=O)=O)cc3)n2)n1C(C)C [AZD5438]
Second: CNCc1ccc(-c2cc(-c3nc(-c4ccc(S(=O)(=O)C(C)C)cc4)cnc3N)on2)cc1 [VE-822]
The ΔTm at 10 µM of the first is higher: 1 °C for the first, 0.4 °C for the second.

Going from `Cn1c(=O)c(F)c(Nc2ccc(I)cc2F)c2c(=O)n(C[C@@H](O)CO)cnc21` [TAK-733] to `CCCS(=O)(=O)Nc1ccc(F)c(C(=O)c2c[nH]c3ncc(Cl)cc23)c1F` [PLX-4720], the ΔTm at 10 µM falls from -0.1 °C to -0.2 °C.

Compared with `C=CC(=O)Nc1cccc(Nc2nc(Nc3ccc(OCCOC)cc3)ncc2F)c1` [AVL-292], `CN(C)CCOc1ccc(-c2nc(-c3ccncc3)c(-c3ccc4c(c3)CC/C4=N\O)[nH]2)cc1` [SB590885] is lower in ΔTm at 10 µM: -0.1 °C for the first, -0.2 °C for the second.

First: CCN1CCN(Cc2ccc(Nc3ncc(F)c(-c4cc(F)c5nc(C)n(C(C)C)c5c4)n3)nc2)CC1 [LY2835219]
Second: NC(=O)c1ccc(N(C(N)=O)c2c(F)cccc2F)nc1-c1ccc(F)cc1F [VX-702]
The ΔTm at 10 µM of the first is higher: 2.2 °C for the first, 0 °C for the second.

Compared with `CCCNC(=O)Nc1ccc(Oc2ncnc3cc(OC)c(OC)cc23)cc1Cl` [KRN 633], `Oc1cc(O)cc(/C=C/c2ccc(O)c(O)c2)c1` [Piceatannol] is higher in ΔTm at 10 µM: 0 °C for the first, 0.1 °C for the second.

`COc1ccc(S(=O)(=O)N(C(C)=O)c2ccccc2/C=C/c2cc[n+]([O-])cc2)cc1` [HMN-214] gave a ΔTm at 10 µM of 0.2 °C.
